Test [1] relates to rat dural blood flow. The test is described as follows: Decrease of dural blood flow induced by S1P. The format is in vivo. Conditions: 10 mg/kg through femoral vein; S1P 300 μg/kg into cisterna. The source says:
Rat (CD(SD)IGS, male, Charles River Japan Inc., 10 weeks old-13 weeks old, 450-520 g) was anesthetized by injection of urethane (1.2 g/kg, s.c.), placed in the femoral vein with catheter (polyethylene tube SP10; I.D. 0.28 mm, O.D. 0.61 mm: Natsume Seisakusho Co. Ltd.) for compounds administration, and then blood flow to brain through only vertebral artery was made to happen by tying both sides of common carotid arteries. Next, the scalp was cut open and the head region was exposed in order to measure dural blood flow and administer into cisterna. In addition, the trachea was placed with catheter (polyethylene tube; size 7.9: Hibiki) and it connected to the artificial respirator. The measurement of dural blood flow was performed to transmit with 1a ser light to skull using Moon Laser Doppler Imager (Moor LDI) [about 11cm distant from measuring object, about 150 dots both of XY measurement resolution, scanning about 2.8×2.8 cm area (150dots/2.8 cm)]. In addition, measurement condition involved in flux calculation (FLUX; relative value) such as sensitivity -gain etc., was integrated within all experiment. The images of blood flow were captured through the capture software, moor LDI Measurement V3.08, and image data was treated with analyzed software, moor LDI Image Processing V3.08. […]

Test [2] deals with removed rabbit coronary artery. The test is described as follows: Vasoconstrictor action of removed rabbit coronary artery. Conditions: removed rabbit coronary artery ring. As for the experimental part:
The heart was removed from Male rabbit (NZ White, a bout 2 kg) under anesthesia and immersed into cooled Krebs-Henseleit solution. After that, coronary artery was cut out, heart muscle and fat tissue connected around the heart were removed and ringed samples were made. Samples hung in micro tissue organ bath (MTOB-1: Preimetech Corp.) filled with Krebs-Henseleit solution (37° C.) or magnus tube, they were loaded with about 0.2 g-0.5 g resting tension stabilized for about 60 minutes, and then constrictive movement was recorded on a recorder (linearcoda WR3320: Graphtec Corp.) through strain compression amplifier (AP-601G, Nihon Kohden).

Test [3] deals with SHR rat. The test is described as follows: Blood pressure of SHR rat. It is filed as in vivo. The settings on record: 1 mg/kg, 3 mg/kg and 10 mg/kg, i.v.; SHR rat under the awakening. The source says: Rat (SHR/Crj, male, Charles River Japan Inc., 12 weeks old-13 weeks old) was anesthetized by ether, and then rat was fixed in the dorsal position on the laboratory table. Cannula filled with physiologic saline containing heparin was inserted into the femoral artery and cannula filled with physiologic saline was inserted into the femoral vein, respectively. After finish of the operation, rat was fixed in the ballmancage and left at rest until the awakening. The artery cannula was connected to the piezotransducer (DX-100, Nihon Kohden) and the blood pressure was measured through strain compression amplifier(AP-601G, Nihon Kohden). After about 30 minutes from confirming awakening of rat, the blood pressure was measured for additional 30 minutes and then, the compound (3) (1 mg/kg, 3 mg/kg, and 10 mg/kg, i.v.) or vehicle (10% DMSO/plasma) was administered intravenously. After administration, blood pressure was measured for more than 30 minutes. […] In contrast, the compound (3) had little effect on the heart rate.

The subject of test [4] is rat removed basilar artery. The test is described as follows: Vasoconstrictor action of rat removed basilar artery. Conditions: 3 μM (FIG. 3, FIG. 4). As for the experimental part:
Basilar arteries were removed from male rat (CD(SD)IGS, male, Charles River Japan, Inc., 8 weeks old-10 weeks old, 350-450 g) and quickly immersed in cooled Krebs-Henseleit solution. Removed basilar arteries were divided by about 3 mm width with ophthalmic scissors and made as ringed samples. Samples hung in micro tissue organ bath (MTOB-1: Preimetech Corp.) filled with Krebs-Henseleit solution (37° C.). They were loaded with about 0.2 g resting tension stabilized for about 60 minutes, and then constrictive movement was recorded on a recorder (linearcoda WR3320: Graphtec Corp.) through strain compression amplifier (AP-601G, Nihon Kohden) from micro tissue organ bath.

Test [5] concerns removed rat heart. As to the kind of experiment: Removed rat heart (Langendorff heart). Conditions: Langendorff heart mode. An excerpt: Rat (CD(SD)IGS, male, Charles River Japan Inc., 8 weeks old-10 weeks old, 300-450 g) was anesthetized by diethylether, opened the abdominal cavity, injected intravenously with heparin and then, exsanguinated to death. The heart was quickly removed by opening the chest cavity and the removed heart was immersed into cooled Krebs-Henseleit solution. The tissues were trimmed away under the cooling, aortic arches were inserted into the heart functional measuring equipment and fixed with sutures without leaking out. The rat heart function was measured using the heart functional measuring equipment (model IPH-W2, Labo-support). The equipment was used in the Langendorff Heart mode (non-working heart mode) and load was 68-70 mmHg. […] Catheter filled with physiological saline was inserted into the left ventricle, the catheter was connected to the piezotransducer (DX-100, Nihon Kohden) and the left ventricle pressure (LVP) was measured through strain compression amplifier (AP-601G, Nihon Kohden). Heart rate was calculated using LVP data with the heart rate measuring equipment (AT-601G, Nihon Kohden) and dLVP/dt was calculated with differential processor (EQ-641G, Nihon Kohden). Probes of electromagnetic flowmeter (model FF-020T, inside diameter 2 mm, Nihon Kohden) were set on the way to the passage of nutrient solution and the flow rate of nutrient solution (corresponding the blood flow rate of coronary artery) was measured using electromagnetic flowmeter (MFV-3100, Nihon Kohden). Administration of S1P and the compounds was performed by injection of dilution with nutrient solution into the passage of nutrient solution using infusion pump. The injection rate of drug solution was set as the flow rate of nutrient solution before starting of administration. […] Using the above mentioned model, effect of EDG-5 antagonist on heart function was examined. […] EDG-5 antagonist, the compound (1), the compound (2) and the compound (3) increased the flow rate of nutrient solution. In addition, they increased contractive force of heart muscle at the same time. […] It was considered that S1P had no direct chronotropic action and inotropic action on pacemaker and heart muscle and S1P had lowering effect on heart function by contracting the coronary blood vessels and ischemia.

We go through one compound from patent publication US8765783B2, “Pharmaceutical composition for treatment of disease due to vascular constriction or vasodilation” (Ono Pharmaceuticals Co., Ltd., priority 2002, dated 2014).

SMILES strings stand for the structures. “Also recorded” adds a separate entry of the source.

Take `Cc1nn(C)c2nc(NNC(=O)Nc3cc(Cl)nc(Cl)c3)cc(C(C)C)c12` [compound (3), N-(2,6-dichloro-4-piridinyl)-2-(4-isopropyl-1,3-dimethyl-1H-pyrazolo[3,4-b]pyridin-6-yl)hydrazinecarboxamide]: the “inhibition of decrease of dural blood flow by S1P” value in test [1] is reported as “inhibited; also recorded: suppression”. In test [2], the “inhibitory activity on constriction of rabbit coronary artery by S1P” value was “inhibitory activity”. In addition, in test [3], the “antihypertensive effect on SHR rat blood pressure” value is recorded as “antihypertensive effect”. In addition, the “inhibitory effect on vasoconstrictor action of rat removed basilar artery by S1P” value in test [4] was “inhibitory effect; also recorded: suppression”. Besides, in test [5], the “flow rate of nutrient solution (corresponding the blood flow rate of coronary artery)” value is listed as “increased”. For the same compound, the “contractive force of heart muscle” value in test [5] (EDG-5 antagonist) is given as “increased”.
